Results as given in article PMC8478282, “Recombinant Peptide Mimetic NanoLuc Tracer for Sensitive Immunodetection of Mycophenolic Acid” (Analytical Chemistry, 2021).
Entries after “also recorded” stand apart in the source; their conditions may differ. Bridges are numbered along the chain shown (N, C = ends). Where no end group is shown, it is not given here.

Key:
anti-MPA Fab antibody = test: SPR (Biacore T200), 1:1 Langmuir kinetics, binding to immobilized anti-MPA Fab; conditions: for Dissociation rate constant kd: Biacore T200, CM5 chip, anti-MPA (14) Fab immobilized, anti-OTA Fab reference, 1x PBS-P, +25 °C, dissociation phase 5 min, averages (± SE), seven concentrations; for Binding to anti-MPA Fab surface: SPR, concentration-dependent responses
From the text: To compare the binding properties of the biotinylated cyclic peptide and MPA toward the anti-MPA antibody, label-free SPR technology was applied. In the binding experiments, previously identified, produced, and purified Fab antibodies recognizing either MPA or ochratoxin A were immobilized onto sensor chip surfaces.[22] The same experimental conditions were used to study the binding properties of cyclic peptide (A2) and MPA. The results are presented in Figures S3 and S4 and summarized in Table S1 (Supporting Information).
(§1) solution as described before.
(§2) (OTA) Fab fragment on reference surface (flow channel 1). As running buffer, 1× PBS-P
(§3) After dissociation phase of 5 min, regeneration
followed by stabilization period of 60s. All samples were analyzed in replicates. […]

[1] = system: biotinylated anti-MPA Fab antibody; test: Bioluminescent bead-based competitive immunoassay with A2-NanoLuc / NanoLuc-A2 tracer; type: binding; conditions: for Cross-reactivity: IC50 for MPA divided by the IC50 of the interferent
Description: (§4) To detect MPA with the A2-NanoLuc fusion protein, a bead-based assay was carried out on a black microtiter well plate by immobilizing the biotinylated anti-MPA onto streptavidin-coated magnetic beads (Figure 1). Briefly, the wells were first blocked with assay buffer (SuperBlock with 0.05% Tween-20) for 1 h. Then, 60 μL of 5 μg mL^–1 biotinylated anti-MPA in assay buffer and 20 μL of streptavidin beads (1:50 dilution from the stock) were added to the wells and incubated for 30 min at RT. After washing three times with PBST, 60 μL of a solution containing different concentrations of MPA and 77 μg mL^–1 of the A2-NanoLuc in assay buffer was added to the wells and incubated 30 min at RT. Once the beads were washed, 60 μL of NanoGLO substrate in PBS were added and bioluminescence was measured after a 2 min incubation at 470 nm with a bandwidth of 80 nm using a CLARIOstar microplate reader.
The matrix effect was tested in the presence of different dilutions of the ultrafiltered serum samples [1/2, 1/6, and 1/8, (v/v)], treated following a previously described procedure,[11] in PBST. […] Therefore, such dilution was used for further experiments.

anti-MPA [2] = test: Bead-based competitive phage immunoassay with clone A2; type: binding; conditions: Amplex UltraRed fluorescence, n = 3
Description: (§5) Briefly, black microtiter plates were blocked with 280 μL of assay buffer for 1 h at RT and subsequently washed three times with PBS. Then, the biotinylated anti-MPA (1.2 μg mL^–1) and neutravidin-coated magnetic beads (125 μg mL^–1) functionalized as described before,[18] were added to the wells in the assay buffer (total volume 260 μL per well), and incubated for 30 min at RT. After washing the beads using a plate washer with a magnetic support, the phage clone (10^11 pfu mL^–1) and increasing concentrations of free MPA were added to the wells (in assay buffer, 60 μL per well) and incubated for 30 min at RT. The beads were washed again to remove the excess, followed by incubation with HRP-conjugated anti-M13 antibody (1:5000 dilution in assay buffer; 80 μL per well) for 30 min at RT. Finally, after washing, 80 μL of Amplex UltraRed solution was added to each well, and the fluorescence was monitored with a CLARIOstar microplate reader (BMG Labtech) (λex = 530 nm and λem = 590 nm).

anti-MPA [3] = test: Bead-based competitive immunoassay with synthetic biotinylated peptide A2; type: binding
[4] = Biosensor analysis of blood samples of patients and healthy controls; type: in vivo, human; conditions: free MPA
Description: as §4, §1, §2, §3
followed by stabilization period of 60s. All samples were analyzed in replicates. The result s were
for MPAG, Acyl-MPAG and MPA respectively. The rt were reproducible between runs. Fig ure
The three metabolites were
curves was >0.99 for all compounds tested.
and centrifuged at 12,045 g for 30 min.
samples and vortexed for 5 minutes at 1000 rpm. […]

[5] = serum; cited from earlier work
From the text: Mycophenolic acid (MPA) is a mycotoxin produced by Penicillium fungi, and it is widely used as an immunosuppressant drug to prevent organ rejection in transplanted patients.[1] Recently, it has also been tested as a chemotherapeutic agent as it inhibits the proliferation of cancer cells.[2] Due to the small therapeutic window that MPA has, it is very important to monitor correctly its levels inside the human body.[3] MPA is mainly found in the serum, but only 1% of the total MPA exists in the free form, which is the one responsible for its pharmacological activity.[3],[4] Therefore, the availa ...

[6] = human, in vivo
Description: Volunteers donated whole blood samples with permission from the Ethics Committee from Hospital Clínico Universitario de Valladolid, Spain (no. PI 21-2245). The blood samples were kept at 20 °C during transport and storage. The samples were treated following the procedure described previously (see the Supporting Information for details).[11]
100µL of a 0.1 µg mL−1 bi o -A2 solution were added to the neutravidin-functionalized beads
solution as described before. After a 30-min incubation and a similar washing step, 100 µL of a
solution containing 0.5µg mL −1 of anti-MPA and different concentrations of free MPA,
previously incubated during 10 min, were added to the beads and incubated for another 30 m in.
After washing, an anti-IgG-HRP antibody was added, incubated 30 min and washed thereafter.
Finally, 80 µL of Amplex UltraRed was added and the fluorescence was monitored as described
The optimized separation of the three metabolites was performed in gradient elution mode,
quantified using an internal standard (MPA-LuciferYellow) calibration model using a nine-point
calibration curve, with a concentration range (0.5–80 ng mL −1 for MPA; 50–15000ng mL−1 f or
MPAG and 12– 250ng mL−1 for Acyl-MPAG) for the three metabolites. […]
analyzed. Free MPA was analyzed in plasma samples after a 1:8 dilution in SuperBlock + 0.05% […]

anti-MPA [7] = test: Plate-based phage ELISA, direct and competitive; type: binding
Description: The assay was carried out at room temperature (RT). The biotinylated anti-MPA (Supporting Information) [5 μg mL^–1 in the assay buffer (SuperBlock supplemented with 0.05% Tween-20); 100 μL per well] was immobilized on streptavidin-coated wells (30 min), followed by three-time washes with PBST. The wells were then blocked with 280 μL of assay buffer for 30 min and washed again three times with PBS. Then, the amplified phage stock (between 10^10 and 10^11 pfu mL^–1; 100 μL per well) was added to the wells in assay buffer and incubated for 1 h with slow shaking. After washing the wells as described above, the HRP-conjugated anti-M13 monoclonal antibody (1:5000 dilution in assay buffer; 100 μL per well) was added to the wells and incubated for 1 h. Finally, the plate was washed three times as described above and 100 μL of ABTS was added to the wells. After 5 min, absorbance at 405 nm was measured in a Varioskan plate reader (Thermo Scientific).
as §5

[8] = A2-NanoLuc bead-based bioluminescent assay, n = 3

COc1c(C)c2c(c(O)c1C/C=C(\C)CCC(=O)O)C(=O)OC2 [MPA, Mycophenolic acid]
Dissociation rate constant kd (anti-MPA Fab antibody): 0.0741 ± 0.0004 s⁻¹ | Kd (anti-MPA Fab antibody; MPA and anti-MPA Fab interaction, in agreement with previous SPR affinity in solution results, read-out: Affinity constant): ~40 nM | Binding to anti-MPA Fab surface (anti-MPA Fab antibody): showed binding to the anti-MPA Fab antibody surface | Dynamic range (20–80% inhibition) ([1]; A2-NanoLuc tracer, assay buffer, bioluminescence, n = 3): 0.64–14 ng mL^–1 | Matrix effect on dose response curve ([1]; PBST vs ultrafiltered serum diluted 1/8 (v/v), p > 0.05, n = 3): No significant differences | LOD (10% inhibition) ([1]; free MPA competing with A2-NanoLuc (77 μg/mL) for biotinylated anti-MPA on streptavidin beads, assay buffer (SuperBlock + 0.05% Tween-20), RT, 30 min, bioluminescence 470 nm, n = 3): 0.26 ng mL^–1 | IC50 ([1]; free MPA competing with A2-NanoLuc (77 μg/mL) for biotinylated anti-MPA on streptavidin beads, assay buffer, RT, 30 min, bioluminescence 470 nm, logistic fit, n = 3): 2.9 ± 0.5 ng mL^–1 | LOD (10% inhibition) (anti-MPA [2]; free MPA competing with phage clone A2 (10^11 pfu/mL), neutravidin beads with biotinylated anti-MPA, assay buffer, RT, 30 min): 0.69 ng mL^–1 | Dynamic range (20–80% inhibition) (anti-MPA [2]; phage clone A2 (10^11 pfu/mL), neutravidin beads): 1.0–4.1 ng mL^–1 | Dynamic range (20–80% inhibition) (anti-MPA [3]; biotinylated A2 peptide (0.1 µg/mL) on neutravidin beads, anti-MPA 0.5 µg/mL, Amplex UltraRed fluorescence, n = 3): 2.4–60 ng mL^–1 | LOD (10% inhibition) (anti-MPA [3]; free MPA, biotinylated A2 peptide (0.1 µg/mL) on neutravidin beads, anti-MPA 0.5 µg/mL pre-incubated 10 min with MPA, 30 min, anti-IgG-HRP, Amplex UltraRed fluorescence, n = 3): 0.94 ng mL^–1 | MPA detected in control samples ([4]; healthy controls H1–H3): no MPA was detected in the control samples | MPA concentration levels by patient ([4]; transplanted patients T1–T5): patients T1 and T2 had the highest MPA concentration levels | Free form of total MPA [5]: 1%

COc1c(C)c2c(c(O[C@@H]3O[C@H](C(=O)O)[C@@H](O)[C@H](O)[C@H]3O)c1C/C=C(\C)CCC(=O)O)C(=O)OC2 [MPAG, mycophenolic acid glucuronide]
Cross-reactivity [1, 8]: 0.03% | MPAG level in samples vs biosensor [6]: below the limit of quantification of the biosensor

COc1c(C)c2c(c(O)c1C/C=C(\C)CCC(=O)O[C@@H]1O[C@H](C(=O)O)[C@@H](O)[C@H](O)[C@H]1O)C(=O)OC2 [acyl-MPAG, acyl-mycophenolic acid glucuronide]
Cross-reactivity [1, 8]: 58% | Behavior in the assay compared to MPA ([1]; cross-reactivity test, A2-NanoLuc bead-based bioluminescent assay): very similar behavior to MPA

C=CC[C@@H]1/C=C(\C)C[C@H](C)C[C@H](OC)[C@H]2O[C@@](O)(C(=O)C(=O)N3CCCC[C@H]3C(=O)O[C@H](/C(C)=C/[C@@H]3CC[C@@H](O)[C@H](OC)C3)[C@H](C)[C@@H](O)CC1=O)[C@H](C)C[C@@H]2OC [tacrolimus]
Cross-reactivity [1, 8]: lower than 0.03%

A(CEGLYAHWC)GGGSK(Bio)-NH2 (disulfide) [Cyclic peptide (A2)]
Dissociation rate constant kd (anti-MPA Fab antibody): 0.583 ± 0.001 s⁻¹ | Binding to anti-MPA Fab surface (anti-MPA Fab antibody): showed binding to the anti-MPA Fab antibody surface | Association / dissociation relative to MPA (anti-MPA Fab antibody; compared to MPA–anti-MPA Fab antibody complex): slower association and faster dissociation | Competition with free MPA (anti-MPA [3]; synthetic biotinylated peptide, competitive neutravidin bead-based assay): competition at the nanomolar level

ACEGLYAHWC (disulfide 2-10 (inferred)) [A2, phage clone displaying […] with a disulfide bond between the two cysteines; MPA mimetic]
Signal in competitive ELISA in the presence of free MPA (anti-MPA [7]; 100 ng/mL free MPA added with phage clone A2, data not shown): significant decrease in the signal | Nonspecific binding (anti-MPA [7]; phage ELISA in the absence of anti-MPA): very low nonspecific binding | Phage ELISA binding to anti-MPA (anti-MPA [7]; phage clone vs immobilized biotinylated anti-MPA, signal-to-background, ABTS, absorbance 405 nm): very high signal-to-background ratio; also recorded: high specificity toward anti-MPA

cyclosporin
Cross-reactivity [1, 8]: lower than 0.03%
